In patent US10660900B2 (priority 2014, dated 2020):
Several values for one entry are separate records, joined by “and”; a condition that tells them apart may be missing. Equal values may be shown once. Read-outs that look alike come from different tables or passages of the source.

Tests used:
[1] = biological target: T1, human OPRM (Homo sapiens, UniProt P35372); parameters: expressed in transfected cells; host or cells: CHO-K1 (cell line provided by Dr. Toll, Torrey Pines Institute); membranes prepared in house; details: cited from earlier work
T1 sequence (P35372 whole entry): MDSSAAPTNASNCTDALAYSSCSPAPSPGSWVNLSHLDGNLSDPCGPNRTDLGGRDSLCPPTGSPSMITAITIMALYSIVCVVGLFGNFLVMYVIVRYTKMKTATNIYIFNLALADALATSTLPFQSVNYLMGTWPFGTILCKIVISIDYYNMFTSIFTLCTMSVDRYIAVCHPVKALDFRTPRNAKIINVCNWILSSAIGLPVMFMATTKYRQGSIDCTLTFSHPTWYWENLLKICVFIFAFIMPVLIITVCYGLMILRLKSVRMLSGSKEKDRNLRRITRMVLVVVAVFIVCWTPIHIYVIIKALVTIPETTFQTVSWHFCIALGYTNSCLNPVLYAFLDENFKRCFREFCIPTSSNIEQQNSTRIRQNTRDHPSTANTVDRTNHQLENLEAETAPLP

[2] = biological target: T1, human OPRM; parameters: expressed in transfected cells; host or cells: CHO-K1 (cell line provided by Dr. Toll, Torrey Pines Institute); membranes prepared in house; details: cited from earlier work; remark: listed apart in the source
[3] = system: human OPRK; assay: biochemical; assay type: binding
[4] = biological target: T2, OPRK (Homo sapiens, UniProt P41145); assay: biochemical; parameters: expressed in transfected cells; host or cells: CHO-K1; details: for Emax: read-out: Efficacy (Emax)
T2 sequence (P41145 whole entry): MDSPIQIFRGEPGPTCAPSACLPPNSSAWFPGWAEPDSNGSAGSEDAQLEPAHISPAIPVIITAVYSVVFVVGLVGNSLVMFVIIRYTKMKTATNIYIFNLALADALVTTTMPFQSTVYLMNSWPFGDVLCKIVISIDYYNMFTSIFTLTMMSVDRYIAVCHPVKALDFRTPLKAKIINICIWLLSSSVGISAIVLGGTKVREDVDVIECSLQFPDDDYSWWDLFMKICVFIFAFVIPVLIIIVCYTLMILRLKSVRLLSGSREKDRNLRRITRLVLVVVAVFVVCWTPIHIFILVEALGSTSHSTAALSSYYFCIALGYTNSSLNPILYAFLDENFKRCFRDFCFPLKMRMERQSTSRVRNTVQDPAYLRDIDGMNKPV

[5] = biological target: calf OPRM (Bos taurus, UniProt P79350); details: cited from earlier work
Chain of calf OPRM (P79350 whole entry): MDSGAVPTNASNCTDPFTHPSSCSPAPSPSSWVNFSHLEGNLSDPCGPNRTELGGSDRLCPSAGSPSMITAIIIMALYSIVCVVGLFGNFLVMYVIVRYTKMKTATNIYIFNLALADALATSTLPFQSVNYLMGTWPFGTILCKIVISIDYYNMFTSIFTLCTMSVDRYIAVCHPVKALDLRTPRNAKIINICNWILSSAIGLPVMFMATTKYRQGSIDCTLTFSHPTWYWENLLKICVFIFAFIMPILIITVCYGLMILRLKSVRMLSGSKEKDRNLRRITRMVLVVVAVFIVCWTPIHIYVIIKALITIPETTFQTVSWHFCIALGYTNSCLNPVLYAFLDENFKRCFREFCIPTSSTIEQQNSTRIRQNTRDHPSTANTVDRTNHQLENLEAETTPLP

[6] = biological target: T2, OPRK; assay: biochemical; assay type: binding; parameters: expressed in transfected cells; host or cells: CHO-K1; details: Ki
[7] = biological target: T1, human OPRM; assay: biochemical; parameters: expressed in transfected cells; host or cells: CHO-K1 (cell line provided by Dr. Toll, Torrey Pines Institute); membranes prepared in house; details: for Emax: read-out: Efficacy (Emax)
[8] = biological target: T1, human OPRM; assay: biochemical; assay type: binding; parameters: expressed in transfected cells; host or cells: CHO-K1 (cell line provided by Dr. Toll, Torrey Pines Institute); membranes prepared in house; details: Ki
[9] = biological target: calf OPRK (Bos taurus, UniProt Q2KIP6); details: calf receptor; literature; cited from earlier work
Chain of calf OPRK (Q2KIP6 whole entry): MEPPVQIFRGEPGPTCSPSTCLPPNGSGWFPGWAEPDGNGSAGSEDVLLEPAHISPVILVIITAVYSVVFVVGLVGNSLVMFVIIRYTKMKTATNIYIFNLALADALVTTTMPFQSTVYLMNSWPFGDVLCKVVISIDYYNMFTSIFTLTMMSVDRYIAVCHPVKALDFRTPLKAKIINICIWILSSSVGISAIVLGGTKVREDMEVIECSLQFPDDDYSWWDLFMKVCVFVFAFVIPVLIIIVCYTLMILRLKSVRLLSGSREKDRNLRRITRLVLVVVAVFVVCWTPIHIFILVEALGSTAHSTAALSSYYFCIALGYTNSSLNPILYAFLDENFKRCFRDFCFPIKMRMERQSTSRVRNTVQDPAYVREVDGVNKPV

[10] = biological target: opioid receptor delta (OPRD) (Bos taurus, UniProt F1N083); details: printed in the SEM column; literature; cited from earlier work
Chain of opioid receptor delta (OPRD) (F1N083 1-372): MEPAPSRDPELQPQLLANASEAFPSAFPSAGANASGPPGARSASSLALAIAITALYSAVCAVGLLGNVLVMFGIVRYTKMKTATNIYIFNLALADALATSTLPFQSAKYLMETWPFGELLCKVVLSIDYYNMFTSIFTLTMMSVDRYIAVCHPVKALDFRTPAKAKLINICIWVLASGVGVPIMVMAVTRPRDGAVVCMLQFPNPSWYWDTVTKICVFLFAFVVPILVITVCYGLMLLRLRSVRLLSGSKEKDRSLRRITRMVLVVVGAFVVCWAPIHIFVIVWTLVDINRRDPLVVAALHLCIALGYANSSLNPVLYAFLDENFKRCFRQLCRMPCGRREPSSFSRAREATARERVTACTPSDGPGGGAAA

[11] = biological target: T2, OPRK; assay: cell-based; parameters: host or cells: CHO-K1
[12] = Single ascending oral dose pharmacokinetics of noribogaine in healthy volunteers (plasma and urine, LCMSMS); details: for AUC0-216 / AUC0-∞ / Cmax / Tmax / t1/2: mean (SD), n = 6
[13] = biological target: T1, human OPRM; assay type: cell-based; parameters: host or cells: CHO-K1
[14] = from literature (or literature/this work) values
[15] = 30 mg single oral noribogaine, plasma
[16] = 60 mg single oral noribogaine, plasma

Compound: NC(N)=Nc1ccc2c3c([nH]c2c1)[C@@H]1Oc2c(O)ccc4c2[C@@]12CCN(CC1CC1)[C@H](C4)[C@]2(O)C3 [6′GNTI, 6′-guanidinonaltrindole]
- Ki [1]: 82 nM
- pKi [1]: 7.1
- EC50 ([2]; activation, literature): > 1000 nM
- Efficacy ([2]; activation, literature): 0~ %
- ΔpKi = pKi(OPRK) − pKi(OPRM), OPRK Specificity [3, 14]: 1.84

Compound: COCCC1CC2CN3CCc4c([nH]c5ccccc45)C(C(=O)OC)(C2)C13 (stereo not shown) [18-MC, 18-methoxycoronaridine, reference compound]
- EC50 [4]: ~16000 nM
- Efficacy (inhibition) [4]: −100%
- e-coupling (pKi-pEC50) [4]: 0.94~
- e-coupling (pKi-pKe) [4]: 0.39
- stimulation of [35S]GTPγS binding to OPRK [4]: failed to stimulate
- Ki ([4]; Ke): 2800 nM and 2900 nM and 4300 nM
- Emax [4]: < 5%
- reported selectivity at OPRM ([5]; Glick, Maisonneuve et al. 2000): 5 ×
- pKi ([5]; calf receptor, literature): 6.0
- Ki ([6]; Table 9 summary column, value of this work): 1800 nM
- Ki ([6]; [3H]-U69,593): 1840 ± 120 nM
- stimulation of the OPRM G-protein pathway [7]: failed to stimulate the OPRM G-protein pathway
- Emax [7]: < 5%
- ΔpKi = pKi(OPRK) − pKi(OPRM), OPRK Specificity [3, 14]: −0.7
- ΔpKi = pKi(OPRK) − pKi(OPRM), OPRK Specificity ([3]; from values of this work): 0.1
- affinity at human OPRK versus OPRM ([3]; in these assays): equi-affine to both human OPRK and OPRM
- Ki [8]: 2260 nM and 2360 nM
- Ki [9]: 5100 nM
- pKi [9]: 5.3

Compound: C[C@@H](NC(=O)[C@@H](N)Cc1ccc(O)cc1)C(=O)NCC(=O)N(C)[C@@H](Cc1ccccc1)C(=O)NCCO [DAMGO, [D-Ala2, NMe-Phe4, Gly-ol5]-enkephalin]
- ΔpKi = pKi(OPRK) − pKi(OPRM), OPRK Specificity [3, 14]: <−3

Compound: CCC1CC2CC3c4[nH]c5ccc(OC)cc5c4CCN(C2)C13 (stereo not shown) [Ibogaine, ibogaine, reference compound]
- Ki ([5]; calf receptor, literature): 11000 nM
- pKi ([5]; calf receptor, literature): 5.0
- stimulation of the OPRM G-protein pathway [7]: failed to stimulate the OPRM G-protein pathway
- Emax [7]: -2.9%
- Ki [8]: 6920 ± 830 nM
- Ki at OPRD [10]: (OPRD − N.Q.)

Compound: C=C1CC[C@@]2(O)[C@H]3Cc4ccc(O)c5c4[C@@]2(CCN3CC2CC2)[C@H]1O5 [Nalmefene, nalmefene, reference compound]
- Efficacy (inhibition) [4]: −65%
- e-coupling (pKi-pEC50) [4]: 0.92
- e-coupling (pKi-pKe) [4]: 0.23
- own reduced signal level to which rival agonist signal is leveled down [4]: 30%
- Emax [4]: 35 ± 4.7%

Compound: Oc1ccc2c3c1O[C@H]1c4[nH]c5c(c4C[C@@]4(O)[C@@H](C2)N(CC2CC2)CC[C@]314)C[C@@]1(O)[C@H]2Cc3ccc(O)c4c3[C@@]1(CCN2CC1CC1)[C@H]5O4 [NorBNI, nor-binaltorphimine, reference compound]
- Efficacy (inhibition) [4]: −100%
- e-coupling (pKi-pKe) [4]: −0.1
- ΔpKi = pKi(OPRK) − pKi(OPRM), OPRK Specificity [3, 14]: 2.0
- e-coupling (pKi-pKe) ([11]; inhibitory component): 0.27
- Efficacy (inhibition) ([11]; inhibitory component against Dynorphin A): −100%

Compound: CC[C@H]1C[C@@H]2C[C@H]3c4[nH]c5ccc(OC6OC(C(=O)O)C(O)C(O)C6O)cc5c4CCN(C2)[C@@H]13 (stereo partly shown) [Noribogaine glucuronide, noribogaine glucuronide]
- proportion of noribogaine glucuronide Cmax and AUC relative to noribogaine ([12]; 30 mg and 60 mg dose groups): 3-4%
- AUC0-216 [12, 15]: 25.7 (9.1) ng · hr/ml
- AUC0-∞ [12, 15]: 25.8 (9.3) ng · hr/ml
- Cmax [12, 15]: 1.8 (0.6) ng/ml
- Tmax [12, 15]: 3.0 (0.6) hr
- t1/2 [12, 15]: 20.6 (4.9) hr
- AUC0-216 [12, 16]: 65.0 (21.5) ng · hr/ml
- AUC0-∞ [12, 16]: 67.1 (21.9) ng · hr/ml
- Cmax [12, 16]: 4.1 (1.2) ng/ml
- Tmax [12, 16]: 3.8 (1.2) hr
- t1/2 [12, 16]: 23.1 (3.0) hr
- time by which detected in all subjects ([12]; plasma, 30 mg and 60 mg noribogaine): ≤ 0.75 h
- Mean half-life ([12]; plasma, across dose groups): 21 to 23 h
- time of peak concentrations after oral noribogaine dosing ([12]; plasma, across dose groups): 3 to 4 h

Compound: [Met]-Enkephalin
- Efficacy [13]: 100%
- Efficacy [2]: ~95%
- ΔpKi = pKi(OPRK) − pKi(OPRM), OPRK Specificity [3]: <−3
